Drawing on PubChem BioAssay (NCI), this text covers GI50 and TGI for 14 molecules.

Among the test systems are OVCAR-8 ovarian; KM12 colon; K-562 leukemia; OVCAR-4 ovarian; SF-268 CNS; SK-MEL-5 melanoma; RXF 393 renal; NCI-H522 lung; LOX IMVI melanoma; COLO 205 colon.
Assay in all cases: NCI tumour cell line growth inhibition, 48 h

The structures appear in SMILES notation.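 Each compound was tested at five concentrations against cells in 96-well plates for 48 hours. At the GI50, growth is halved. TGI is the concentration that stops growth completely.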

In the case of `O=C(c1cccs1)c1nc2cc(Cl)ccc2[n+]([O-])c1C(F)(F)F`, the GI50 in the assay on OVCAR-8 ovarian was more than 100 µM; in the assay with KM12 colon, 85.4 µM; with K-562 leukemia, more than 100 µM; in the assay on OVCAR-4 ovarian it was more than 100 µM; with SF-268 CNS it was more than 100 µM; with SK-MEL-5 melanoma, 45.4 µM. The GI50 with RXF 393 renal is 44.3 µM; in the assay with NCI-H522 lung, 29.6 µM; with LOX IMVI melanoma, more than 100 µM; in the assay on COLO 205 colon, more than 100 µM. For the same molecule, the TGI with OVCAR-8 ovarian, with KM12 colon, with K-562 leukemia, in the assay on OVCAR-4 ovarian, in the assay with SF-268 CNS and with SK-MEL-5 melanoma was more than 100 µM in each case. Besides, the TGI in the assay with RXF 393 renal, in the assay with NCI-H522 lung, in the assay on LOX IMVI melanoma and with COLO 205 colon was more than 100 µM each time.

Consider `COc1ncc(-c2ccc3nccc(C#CCN4CCN(S(C)(=O)=O)CC4)c3c2)cc1NS(=O)(=O)c1ccc(F)cc1F`, for which the GI50 in the assay on OVCAR-8 ovarian is 0.256 µM; in the assay with KM12 colon, 0.293 µM; with K-562 leukemia, 0.665 µM; in the assay with OVCAR-4 ovarian, 0.264 µM; in the assay with SF-268 CNS, 0.0985 µM; in the assay on SK-MEL-5 melanoma it was 0.192 µM. The GI50 is 0.0438 µM with RXF 393 renal, 0.154 µM with NCI-H522 lung, 0.0956 µM in the assay with LOX IMVI melanoma and 0.0418 µM in the assay with COLO 205 colon. Moreover, the TGI with OVCAR-8 ovarian was 11.7 µM; in the assay on KM12 colon, 1.55 µM; in the assay on K-562 leukemia, more than 41.3 µM; in the assay on OVCAR-4 ovarian it was 12 µM; in the assay on SF-268 CNS, 3.93 µM; with SK-MEL-5 melanoma, 0.723 µM. The TGI in the assay on RXF 393 renal came to 0.354 µM; with NCI-H522 lung, 1.77 µM; in the assay with LOX IMVI melanoma, 1.41 µM; with COLO 205 colon, 1.18 µM.

With `C=C(CN1CCN(c2ccccc2C(F)(F)F)CC1)c1ccc(C(=O)Nc2ccccc2N)cc1`, the GI50 in the assay on OVCAR-8 ovarian was 3.84 µM; in the assay on KM12 colon it was 2.04 µM; with K-562 leukemia, 1.54 µM; in the assay on OVCAR-4 ovarian, 6.53 µM; with SF-268 CNS, 4.55 µM; in the assay with SK-MEL-5 melanoma, 3 µM. Further, the GI50 in the assay on RXF 393 renal was 1.67 µM; in the assay on NCI-H522 lung, 1.91 µM; with LOX IMVI melanoma it was 5.86 µM; with COLO 205 colon it was 11.5 µM. For the same molecule, the TGI with OVCAR-8 ovarian was more than 100 µM; in the assay on KM12 colon, 11.7 µM; in the assay on K-562 leukemia, more than 25.8 µM; in the assay on OVCAR-4 ovarian it was more than 84.3 µM; in the assay with SF-268 CNS it was more than 47 µM; in the assay with SK-MEL-5 melanoma, 9.83 µM. Besides, the TGI in the assay on RXF 393 renal was 4.78 µM; in the assay on NCI-H522 lung it was more than 28.1 µM; in the assay on LOX IMVI melanoma, 42.2 µM; in the assay on COLO 205 colon, 45.9 µM.

`CC(=O)SC(SC(C)=O)SC(C)=O`: the TGI in the assay with OVCAR-8 ovarian, in the assay on KM12 colon, in the assay with K-562 leukemia, in the assay on OVCAR-4 ovarian, in the assay with SF-268 CNS and in the assay with SK-MEL-5 melanoma was more than 100 µM each time. Besides, the TGI is more than 100 µM with RXF 393 renal, 45.2 µM in the assay with NCI-H522 lung, more than 100 µM in the assay with LOX IMVI melanoma and 82.9 µM in the assay with COLO 205 colon.

With `CCc1cccc(CC)c1NC(=O)CC1SC(N)=NC1=O` (stereo not given), the TGI in the assay on OVCAR-8 ovarian, with KM12 colon, with K-562 leukemia, in the assay on OVCAR-4 ovarian, in the assay with SF-268 CNS and in the assay with SK-MEL-5 melanoma was more than 100 µM throughout. Also, the TGI in the assay on RXF 393 renal, in the assay with NCI-H522 lung, in the assay with LOX IMVI melanoma and with COLO 205 colon was more than 100 µM in each case.

In the case of `C/C(=N\O)c1cccc(Nc2cc(-c3ccccc3)nc3c(O)cccc23)c1`, the GI50 in the assay with OVCAR-8 ovarian was 4.24 µM; with KM12 colon it was 0.836 µM; in the assay on K-562 leukemia, 0.581 µM; in the assay on OVCAR-4 ovarian it was 8.19 µM; in the assay with SF-268 CNS it was 4.38 µM; in the assay on SK-MEL-5 melanoma, 1.53 µM. The GI50 with RXF 393 renal was 1.62 µM; in the assay with NCI-H522 lung, 1.85 µM; in the assay with LOX IMVI melanoma, 3.12 µM; in the assay with COLO 205 colon, 10.6 µM. The TGI was 39 µM with OVCAR-8 ovarian; 22.9 µM in the assay with KM12 colon; more than 53.5 µM in the assay with K-562 leukemia; 37.4 µM with OVCAR-4 ovarian; 39.5 µM with SF-268 CNS; 16 µM with SK-MEL-5 melanoma. Moreover, the TGI with RXF 393 renal came out at 6.42 µM; with NCI-H522 lung it was 9.36 µM; in the assay on LOX IMVI melanoma, 19.7 µM; in the assay on COLO 205 colon, 26.7 µM.

As to `O=Cc1ccc(-c2ccc(-c3ccc(C=O)o3)[se]2)o1`, the GI50 is more than 100 µM in the assay on OVCAR-8 ovarian; more than 100 µM in the assay on KM12 colon; more than 100 µM in the assay on K-562 leukemia; more than 100 µM in the assay with OVCAR-4 ovarian; more than 95.4 µM in the assay on SF-268 CNS; more than 100 µM with SK-MEL-5 melanoma. The GI50 in the assay on RXF 393 renal is 55.8 µM; with NCI-H522 lung, 16.3 µM; in the assay on LOX IMVI melanoma, more than 100 µM; with COLO 205 colon it was more than 100 µM. Also, the TGI with OVCAR-8 ovarian, in the assay with KM12 colon, in the assay on K-562 leukemia, in the assay with OVCAR-4 ovarian, in the assay on SF-268 CNS and in the assay with SK-MEL-5 melanoma was more than 100 µM throughout. For the same molecule, the TGI with RXF 393 renal is more than 100 µM; with NCI-H522 lung it was 31.1 µM; in the assay on LOX IMVI melanoma, more than 100 µM; in the assay on COLO 205 colon it was more than 100 µM.

`C=C(COC(C)=O)CC(/C=C(\C)CC/C=C(\C)CO)OC(C)=O` (stereo not given): the TGI in the assay with OVCAR-8 ovarian, in the assay with KM12 colon, with K-562 leukemia, in the assay on OVCAR-4 ovarian, with SF-268 CNS and with SK-MEL-5 melanoma was more than 100 µM throughout. The TGI in the assay with RXF 393 renal, in the assay with NCI-H522 lung, in the assay with LOX IMVI melanoma and with COLO 205 colon was more than 100 µM in each case.

Consider `CCCCN(CCCC)CC(C(=O)Nc1ccc([N+](=O)[O-])cc1[N+](=O)[O-])/C(C)=N\NC(=O)C[N+](C)(C)C` (stereo not given), for which the TGI in the assay with OVCAR-8 ovarian, in the assay on KM12 colon, in the assay with K-562 leukemia, with OVCAR-4 ovarian, with SF-268 CNS and in the assay with SK-MEL-5 melanoma was more than 100 µM in each case. Moreover, the TGI with RXF 393 renal, in the assay on NCI-H522 lung, in the assay on LOX IMVI melanoma and in the assay with COLO 205 colon was more than 100 µM in each case.

For the molecule `O=C1C=CC(=O)N1c1ccc(I)cc1`, the TGI with OVCAR-8 ovarian was more than 100 µM; in the assay on KM12 colon it was 45.8 µM; with K-562 leukemia it was 53.5 µM; in the assay with OVCAR-4 ovarian, 60.2 µM; with SF-268 CNS it was more than 77.5 µM; in the assay on SK-MEL-5 melanoma it was 34.1 µM. The TGI in the assay with RXF 393 renal was found to be 33.6 µM; in the assay on NCI-H522 lung, 47.4 µM; in the assay on LOX IMVI melanoma, 42.9 µM; in the assay on COLO 205 colon, 13.9 µM.

On to `FC(F)(F)c1ccc(-c2ncc(-c3ccc(C(F)(F)F)cc3)c(NCc3cc(C(F)(F)F)cc(C(F)(F)F)c3)n2)cc1`, for which the GI50 was 3.8 µM in the assay with OVCAR-8 ovarian; 4.3 µM in the assay on KM12 colon; 3.97 µM with K-562 leukemia; 4.11 µM in the assay on OVCAR-4 ovarian; 3.98 µM with SF-268 CNS; 16.5 µM with SK-MEL-5 melanoma. Besides, the GI50 in the assay with RXF 393 renal was 4.73 µM; in the assay with NCI-H522 lung, 3.29 µM; in the assay with LOX IMVI melanoma, 3.4 µM; in the assay with COLO 205 colon it was 2.34 µM. The TGI with OVCAR-8 ovarian was more than 100 µM; in the assay on KM12 colon it was 63.2 µM; in the assay on K-562 leukemia, more than 100 µM; in the assay on OVCAR-4 ovarian, more than 100 µM; in the assay on SF-268 CNS, more than 100 µM; in the assay on SK-MEL-5 melanoma, 41.8 µM. Further, the TGI in the assay with RXF 393 renal came to 74.9 µM; with NCI-H522 lung it was 22.6 µM; in the assay with LOX IMVI melanoma, 26.2 µM; with COLO 205 colon, 6.09 µM.

Regarding `O=C(O)c1ccc(Oc2nc3ccccc3s2)cc1`, the TGI with OVCAR-8 ovarian, in the assay with KM12 colon, in the assay on K-562 leukemia, with OVCAR-4 ovarian, in the assay on SF-268 CNS and in the assay on SK-MEL-5 melanoma was more than 100 µM each time. For the same molecule, the TGI with RXF 393 renal, in the assay on NCI-H522 lung, in the assay with LOX IMVI melanoma and in the assay with COLO 205 colon was more than 100 µM each time.

With `CC(=O)Oc1c(Br)ccc2cc(C(Br)Br)c(C(=O)c3ccccc3)nc12`, the TGI is 53 µM in the assay with OVCAR-8 ovarian; 37.1 µM in the assay on KM12 colon; 44.1 µM in the assay with K-562 leukemia; 21.7 µM in the assay on OVCAR-4 ovarian; 53.5 µM with SF-268 CNS; 38.7 µM in the assay with SK-MEL-5 melanoma. Also, the TGI stood at 33.8 µM in the assay with RXF 393 renal, 14.8 µM in the assay with NCI-H522 lung, 50.9 µM in the assay on LOX IMVI melanoma and 52.7 µM in the assay with COLO 205 colon.

Turning to `c1ccc(-c2cn(-c3ccccc3)c(-c3ccccc3)n2)cc1`, the GI50 in the assay with OVCAR-8 ovarian is 7.89 µM; in the assay on KM12 colon, 2.19 µM; with K-562 leukemia, 3.54 µM; with OVCAR-4 ovarian, 16.4 µM; in the assay with SF-268 CNS it was 14.8 µM; in the assay with SK-MEL-5 melanoma, 14.9 µM. Also, the GI50 is 17.5 µM in the assay with RXF 393 renal, 13.3 µM in the assay with NCI-H522 lung, 1.95 µM with LOX IMVI melanoma and 10.9 µM in the assay on COLO 205 colon. Also, the TGI in the assay with OVCAR-8 ovarian came to 20.4 µM; with KM12 colon, 4.67 µM; with K-562 leukemia, 18.7 µM; in the assay on OVCAR-4 ovarian it was 31 µM; in the assay on SF-268 CNS, 29.5 µM; in the assay with SK-MEL-5 melanoma, 28.3 µM. Further, the TGI was determined as 33.9 µM in the assay with RXF 393 renal, 27.2 µM with NCI-H522 lung, 4.29 µM in the assay on LOX IMVI melanoma and 23.4 µM with COLO 205 colon.
